From patent US12485134B2, “Use of nicotinamide riboside, nicotinic acid riboside, reduced nicotinyl riboside compounds, and nicotinyl riboside compound derivatives in formulations” (ChromaDex Inc., priority 2019, dated 2025)

How the values were obtained:
Transferrin = Transferrin (Bos taurus, UniProt Q29443); test: NR-Cl binding to individual whey proteins (cutoff filter method); settings: 1 mmol/L each of protein and NR-Cl
Description: (§1) A. Solutions of hydrolyzed whey protein isolate (>90% protein, 2-7% degree of hydrolysis) were prepared at varying concentrations and filtered through 0.2 μm sterile filters. An aliquot of sterile nicotinamide riboside chloride (“NR-Cl,” a salt of NR, I) in water solution was spiked into the sterile whey solutions, targeting a final NR-Cl concentration of 1 mmol per liter (0.3 mg/mL). The solutions containing the mixture of hydrolyzed whey and NR-Cl were filtered through 10 kDa molecular weight cutoff centrifuge filters to remove the whey proteins (14-80 kDa) and any NR-Cl that was bound to the proteins. Any NR-Cl that was not bound to the whey proteins was recovered in the filtrate and quantitated by HPLC.
(§2) The solutions were prepared with 1 mmol/L each of protein and NR-Cl. NR-Cl binding to one or more of these individual proteins could be responsible for the enhanced stability of NR-Cl seen in hydrolyzed whey protein isolate.

Lactoferrin = Lactoferrin (Bos taurus, UniProt P24627); test: as above; settings: 1 mmol/L each of protein and NR-Cl
Lactoferrin, sequence (P24627 20-708): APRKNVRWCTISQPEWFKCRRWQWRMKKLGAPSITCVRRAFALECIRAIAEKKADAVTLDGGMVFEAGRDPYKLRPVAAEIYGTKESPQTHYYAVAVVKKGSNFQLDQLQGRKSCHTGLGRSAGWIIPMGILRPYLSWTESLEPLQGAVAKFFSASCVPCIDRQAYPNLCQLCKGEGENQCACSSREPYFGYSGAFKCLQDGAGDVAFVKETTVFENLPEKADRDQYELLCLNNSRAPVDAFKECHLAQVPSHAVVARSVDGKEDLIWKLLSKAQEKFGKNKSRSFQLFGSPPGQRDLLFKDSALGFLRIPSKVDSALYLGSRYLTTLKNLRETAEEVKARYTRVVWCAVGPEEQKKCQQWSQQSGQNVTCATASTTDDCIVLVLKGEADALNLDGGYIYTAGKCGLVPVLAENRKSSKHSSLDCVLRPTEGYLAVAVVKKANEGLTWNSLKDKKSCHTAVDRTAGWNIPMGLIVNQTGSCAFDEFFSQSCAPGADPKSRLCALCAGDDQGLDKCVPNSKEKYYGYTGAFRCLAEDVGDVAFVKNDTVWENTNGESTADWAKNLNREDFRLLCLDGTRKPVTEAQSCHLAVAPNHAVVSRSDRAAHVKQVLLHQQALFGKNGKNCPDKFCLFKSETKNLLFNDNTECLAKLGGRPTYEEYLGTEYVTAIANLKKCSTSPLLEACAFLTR
Description: as §1, §2

Albumin = Albumin (Bos taurus, UniProt P02769); test: as above; settings: 1 mmol/L each of protein and NR-Cl
Albumin, sequence (P02769 25-607): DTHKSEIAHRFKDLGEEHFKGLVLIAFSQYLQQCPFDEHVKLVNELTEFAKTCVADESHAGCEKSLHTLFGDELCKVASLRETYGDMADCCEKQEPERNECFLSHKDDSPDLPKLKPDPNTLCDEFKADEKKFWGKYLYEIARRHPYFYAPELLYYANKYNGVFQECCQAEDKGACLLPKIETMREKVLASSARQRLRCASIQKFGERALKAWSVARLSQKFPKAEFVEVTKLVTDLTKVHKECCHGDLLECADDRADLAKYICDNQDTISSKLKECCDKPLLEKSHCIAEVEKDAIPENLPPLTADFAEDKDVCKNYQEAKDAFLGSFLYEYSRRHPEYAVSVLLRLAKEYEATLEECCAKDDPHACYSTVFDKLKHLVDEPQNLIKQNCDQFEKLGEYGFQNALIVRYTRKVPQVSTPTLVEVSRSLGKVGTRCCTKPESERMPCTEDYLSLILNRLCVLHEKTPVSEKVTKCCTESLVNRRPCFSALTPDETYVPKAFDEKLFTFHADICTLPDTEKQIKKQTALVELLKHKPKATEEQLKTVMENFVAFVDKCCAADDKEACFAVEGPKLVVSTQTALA
Description: as §1, §2

Beta-lactoglobulin = target: T1, Beta-lactoglobulin (Bos taurus, UniProt P02754); test: as above; settings: 1 mmol/L each of protein and NR-Cl
T1 sequence (P02754 17-178): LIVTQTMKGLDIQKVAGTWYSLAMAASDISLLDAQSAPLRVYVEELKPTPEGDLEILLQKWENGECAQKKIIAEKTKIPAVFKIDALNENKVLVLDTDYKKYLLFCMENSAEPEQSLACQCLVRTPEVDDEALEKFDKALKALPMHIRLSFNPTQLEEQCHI
Description: as §1, §2

Alpha-lactalbumin = target: T2, Alpha-lactalbumin (Bos taurus, UniProt P00711); test: as above; settings: 1 mmol/L each of protein and NR-Cl
T2 sequence (P00711 20-142): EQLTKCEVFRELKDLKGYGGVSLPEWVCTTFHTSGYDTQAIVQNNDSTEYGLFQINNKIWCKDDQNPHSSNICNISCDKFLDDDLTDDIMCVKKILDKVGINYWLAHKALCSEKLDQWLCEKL
Description: as §1, §2

[1] = tested on: hydrolyzed whey protein isolate; test: NR-Cl binding to hydrolyzed whey protein isolate (10 kDa cutoff filtration, unbound NR-Cl in filtrate by HPLC)
Description: as §1
The solutions of hydrolyzed whey protein isolate and NR-Cl were stored at ambient and refrigerated conditions and analyzed at various timepoints for NR-Cl protein binding and stability.
(§3) A study measuring the stability of NR-Cl in hydrolyzed and non-hydrolyzed whey protein was conducted with 2 mmol/L NR-Cl (0.6 mg/mL) and 20 mg/mL protein (33.3:1 wt:wt protein:NR-Cl). […] (See Table 5).

soy isolate proteins = test: WaterLOGSY NMR binding of NR-Cl; settings: native vs denatured, pH 7.0
Description: (§4) WaterLOGSY is a sensitive ligand-observed NMR experiment designed for the screening of protein ligands from a mixture of potential binders. […] The experiment relies on fast dissociation of bound ligands to carry into the free state magnetisation originating from irradiated water that has been transmitted via the protein complex.
(§5) NMR samples for WaterLOGSY were prepared as follows. Ligand-detect WaterLOGSY experiments were carried at 600 MHz with 5-mm cryoprobe and using 5-mm NMR tubes. Each NMR sample for WaterLOGSY contained ˜0.05 mg (˜0.35 mM), using unlabeled ligand NR-Cl (“NR”), in a NMR buffer containing ˜0.5 mL 90% H2O/10% ^2H2O at pH 7.0 with or without the milk and soy protein mix (compared to the WaterLOGSY of NR as a negative control). Protein was added as a powder with a minimal 15 to 50 μM concentration. Typically, the final NMR sample of protein-compound mixtures had >20-fold higher compound concentration of ligand compared to that of the protein. Denatured samples were prepared by simply heating (80° C. for 15-20 mins) the aqueous (5-10% ^2H2O) protein mixture (in absence of NR).

[2] = tested on: milk concentrate proteins; test: WaterLOGSY NMR binding of NR-Cl; settings: pH 7.0
Description: as §4, §5
The NR only WaterLOGSY spectrum (FIG. 23) was the negative control to screen for any potential binding of NR-Cl to milk concentrate and soy isolate proteins as shown herein and discussed below.

[3] = tested on: non-hydrolyzed whey protein; test: NR-Cl binding to non-hydrolyzed whey protein isolate (cutoff filter method); settings: Non-Hydrolyzed Whey Protein Isolate 20 mg/mL, 2 mmol/L NR-Cl (33.3:1 wt:wt)
Description: as §1, §3

Transferrin, sequence (Q29443 20-704): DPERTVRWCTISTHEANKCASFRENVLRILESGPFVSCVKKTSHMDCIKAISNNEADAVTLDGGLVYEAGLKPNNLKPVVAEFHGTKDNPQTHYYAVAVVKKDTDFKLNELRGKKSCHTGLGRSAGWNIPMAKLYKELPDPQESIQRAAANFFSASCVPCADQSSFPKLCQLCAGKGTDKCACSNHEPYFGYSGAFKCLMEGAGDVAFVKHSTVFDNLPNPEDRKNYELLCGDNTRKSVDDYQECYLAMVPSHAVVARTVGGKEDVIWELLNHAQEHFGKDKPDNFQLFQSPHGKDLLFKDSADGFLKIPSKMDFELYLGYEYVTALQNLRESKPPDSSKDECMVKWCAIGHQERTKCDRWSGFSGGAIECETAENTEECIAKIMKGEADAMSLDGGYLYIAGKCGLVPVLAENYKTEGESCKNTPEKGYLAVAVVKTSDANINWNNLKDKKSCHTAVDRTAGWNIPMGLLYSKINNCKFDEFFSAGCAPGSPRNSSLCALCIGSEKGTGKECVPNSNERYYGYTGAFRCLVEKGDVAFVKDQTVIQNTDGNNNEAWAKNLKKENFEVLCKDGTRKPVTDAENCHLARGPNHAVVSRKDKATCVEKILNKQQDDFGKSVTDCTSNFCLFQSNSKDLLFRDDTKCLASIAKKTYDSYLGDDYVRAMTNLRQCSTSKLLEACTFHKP

NC(=O)c1ccc[n+]([C@@H]2O[C@H](CO)[C@@H](O)[C@H]2O)c1.[Cl-] [NR-Cl, nicotinamide riboside chloride]
% NR-Cl Bound to Protein (Transferrin): 15%
% NR-Cl Bound to Protein (Lactoferrin): 28%
% NR-Cl Bound to Protein (Albumin): 47%
% NR-Cl Bound to Protein (Beta-lactoglobulin): 66%
% NR-Cl Bound to Protein (Alpha-lactalbumin): 62%
fraction of NR-Cl bound to whey protein over the course of the experiments ([1]; 7 days ambient, 30 days refrigerated): remain stable
% NR-Cl Bound to Protein ([1]; Hydrolyzed Whey Protein Isolate 20 mg/mL, 2 mmol/L NR-Cl (33.3:1 wt:wt), 0 days refrigerated): 55%
% NR-Cl Bound to Protein ([1]; Hydrolyzed Whey Protein Isolate 20 mg/mL, 2 mmol/L NR-Cl (33.3:1 wt:wt), 1 day refrigerated): 56%
% NR-Cl Bound to Protein ([1]; hydrolyzed whey protein isolate:NR-Cl 18.3:1 (wt:wt), 1 mmol/L NR-Cl): 41%
% NR-Cl Bound to Protein ([1]; hydrolyzed whey protein isolate:NR-Cl 37:1 (wt:wt), 1 mmol/L NR-Cl): 47%
% NR-Cl Bound to Protein ([1]; hydrolyzed whey protein isolate:NR-Cl 73:1 (wt:wt), 1 mmol/L NR-Cl): 60%
% NR-Cl Bound to Protein ([1]; hydrolyzed whey protein isolate:NR-Cl 147:1 (wt:wt), 1 mmol/L NR-Cl): 65%
% NR-Cl Bound to Protein ([1]; hydrolyzed whey protein isolate:NR-Cl 293:1 (wt:wt), 1 mmol/L NR-Cl): 67%
% NR-Cl Bound to Protein ([1]; hydrolyzed whey:NR-Cl 18.3:1 (wt:wt), 0 days ambient): 41%
% NR-Cl Bound to Protein ([1]; hydrolyzed whey:NR-Cl 18.3:1 (wt:wt), 0 days refrigerated): 41%
% NR-Cl Bound to Protein ([1]; hydrolyzed whey:NR-Cl 18.3:1 (wt:wt), 3 days ambient): 44%
% NR-Cl Bound to Protein ([1]; hydrolyzed whey:NR-Cl 18.3:1 (wt:wt), 5 days ambient): 45%
% NR-Cl Bound to Protein ([1]; hydrolyzed whey:NR-Cl 18.3:1 (wt:wt), 7 days ambient): 43%
% NR-Cl Bound to Protein ([1]; hydrolyzed whey:NR-Cl 18.3:1 (wt:wt), 30 days refrigerated): 24%
% NR-Cl Bound to Protein ([1]; hydrolyzed whey:NR-Cl 37:1 (wt:wt), 0 days ambient): 47%
% NR-Cl Bound to Protein ([1]; hydrolyzed whey:NR-Cl 37:1 (wt:wt), 0 days refrigerated): 47%
% NR-Cl Bound to Protein ([1]; hydrolyzed whey:NR-Cl 37:1 (wt:wt), 3 days ambient): 55%
% NR-Cl Bound to Protein ([1]; hydrolyzed whey:NR-Cl 37:1 (wt:wt), 5 days ambient): 54%
% NR-Cl Bound to Protein ([1]; hydrolyzed whey:NR-Cl 37:1 (wt:wt), 7 days ambient): 54%
% NR-Cl Bound to Protein ([1]; hydrolyzed whey:NR-Cl 37:1 (wt:wt), 30 days refrigerated): 45%
% NR-Cl Bound to Protein ([1]; hydrolyzed whey:NR-Cl 73:1 (wt:wt), 0 days ambient): 60%
% NR-Cl Bound to Protein ([1]; hydrolyzed whey:NR-Cl 73:1 (wt:wt), 0 days refrigerated): 60%
% NR-Cl Bound to Protein ([1]; hydrolyzed whey:NR-Cl 73:1 (wt:wt), 3 days ambient): 66%
% NR-Cl Bound to Protein ([1]; hydrolyzed whey:NR-Cl 73:1 (wt:wt), 5 days ambient): 65%
% NR-Cl Bound to Protein ([1]; hydrolyzed whey:NR-Cl 73:1 (wt:wt), 7 days ambient): 65%
% NR-Cl Bound to Protein ([1]; hydrolyzed whey:NR-Cl 73:1 (wt:wt), 30 days refrigerated): 57%
% NR-Cl Bound to Protein ([1]; hydrolyzed whey:NR-Cl 147:1 (wt:wt), 0 days ambient): 65%
% NR-Cl Bound to Protein ([1]; hydrolyzed whey:NR-Cl 147:1 (wt:wt), 3 days ambient): 71%
% NR-Cl Bound to Protein ([1]; hydrolyzed whey:NR-Cl 147:1 (wt:wt), 5 days ambient): 72%
% NR-Cl Bound to Protein ([1]; hydrolyzed whey:NR-Cl 147:1 (wt:wt), 7 days ambient): 69%
% NR-Cl Bound to Protein ([1]; hydrolyzed whey:NR-Cl 293:1 (wt:wt), 0 days ambient): 67%
% NR-Cl Bound to Protein ([1]; hydrolyzed whey:NR-Cl 293:1 (wt:wt), 3 days ambient): 62%
% NR-Cl Bound to Protein ([1]; hydrolyzed whey:NR-Cl 293:1 (wt:wt), 7 days ambient): 72%
WaterLOGSY binding (soy isolate proteins): increase in binding with NR-Cl only after denaturation
WaterLOGSY binding ([2]; denatured milk concentrate (80° C. for 15-20 mins)): decreased binding
WaterLOGSY binding ([2]; milk concentrate): evidence of positive binding
% NR-Cl Bound to Protein ([3]; 0 days refrigerated): 49%
% NR-Cl Bound to Protein ([3]; 1 day refrigerated): 54%
